In ChEMBL document CHEMBL2331287, “Inhibition of mTOR Kinase and Cancer Treatment” (ACS Med Chem Lett, 2013):

Experiments:
[1] = biological target: mTORC1 (Homo sapiens, UniProt P42345); assay: Inhibition of mTORC1 in human PC3 cells assessed as reduction in phosphorylated 4E-BP1Thr37/46 level after 90 mins by immunofluorescence assay; assay type: cell-based, PC-3
[2] = Inhibition of mTORC2 in human PC3 cells assessed as reduction in phosphorylated AKT S473 level after 90 mins by immunofluorescence assay; assay type: cell-based; details: PC-3, 1.5 h

Compound	IC50 [1] [nM]	IC50 [2] [nM]
O=C(c1nnc[nH]1)N1[C@@H]2CC[C@H]1C[C@H](c1nc3c(-c4ccc(-c5ncc[nH]5)nc4)cnn3c3[nH]ccc13)C2	1	1
Cc1n[nH]c2c1c([C@@H]1C[C@H]3CC[C@@H](C1)N3C(=O)c1nnc[nH]1)nc1c(-c3ccc(-c4ccccc4)nc3)cnn12	100	1
